Source: paper PMC10485159, “Biochemical functions and structure of Caenorhabditis elegans ZK177.8 protein: Aicardi–Goutières syndrome SAMHD1 dNTPase ortholog” (The Journal of Biological Chemistry, 2023)

What was measured:
ZK177.8^41–565 = molecular target: T1, ZK177.8^41–565 (Caenorhabditis elegans, UniProt Q09374, H134R/D135N); experiment: X-ray crystallography, […] Å; format: binding; conditions: crystals with 1 mM GTP / 10 mM dATP, pH 5.5
T1 construct: gene sahd-1; tetramer in asymmetric unit
T1 sequence (Q09374 41-565 H134R/D135N): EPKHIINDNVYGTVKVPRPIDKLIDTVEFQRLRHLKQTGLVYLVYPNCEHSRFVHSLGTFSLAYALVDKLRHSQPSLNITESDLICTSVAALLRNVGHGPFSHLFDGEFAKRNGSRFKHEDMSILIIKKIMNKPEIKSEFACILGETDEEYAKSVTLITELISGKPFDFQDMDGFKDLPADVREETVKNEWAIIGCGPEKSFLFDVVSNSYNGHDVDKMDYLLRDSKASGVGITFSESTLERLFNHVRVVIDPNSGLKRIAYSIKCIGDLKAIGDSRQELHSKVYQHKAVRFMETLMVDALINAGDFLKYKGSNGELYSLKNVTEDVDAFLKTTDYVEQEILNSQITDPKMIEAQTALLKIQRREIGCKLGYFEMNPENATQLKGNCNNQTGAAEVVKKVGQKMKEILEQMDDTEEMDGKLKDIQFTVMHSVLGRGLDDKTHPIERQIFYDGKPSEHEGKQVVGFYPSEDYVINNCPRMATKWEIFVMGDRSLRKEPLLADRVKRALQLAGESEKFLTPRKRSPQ

hSAMHD1 = molecular target: T2, hSAMHD1 (Homo sapiens, UniProt Q9Y3Z3); experiment: formaldehyde cross-linking, dGTP-induced tetramerization, SDS-PAGE; format: binding; conditions: 2 mM dGTP, 10 μM protein, 50 mM KCl, 5 mM MgCl2, pH 7.5; allosteric activator; dGTPase activity also compared in supplement Fig. S3
T2 construct: gene SAMHD1; purified human SAMHD1; construct not described; dGTP-induced tetramer
T2 sequence (Q9Y3Z3 whole entry): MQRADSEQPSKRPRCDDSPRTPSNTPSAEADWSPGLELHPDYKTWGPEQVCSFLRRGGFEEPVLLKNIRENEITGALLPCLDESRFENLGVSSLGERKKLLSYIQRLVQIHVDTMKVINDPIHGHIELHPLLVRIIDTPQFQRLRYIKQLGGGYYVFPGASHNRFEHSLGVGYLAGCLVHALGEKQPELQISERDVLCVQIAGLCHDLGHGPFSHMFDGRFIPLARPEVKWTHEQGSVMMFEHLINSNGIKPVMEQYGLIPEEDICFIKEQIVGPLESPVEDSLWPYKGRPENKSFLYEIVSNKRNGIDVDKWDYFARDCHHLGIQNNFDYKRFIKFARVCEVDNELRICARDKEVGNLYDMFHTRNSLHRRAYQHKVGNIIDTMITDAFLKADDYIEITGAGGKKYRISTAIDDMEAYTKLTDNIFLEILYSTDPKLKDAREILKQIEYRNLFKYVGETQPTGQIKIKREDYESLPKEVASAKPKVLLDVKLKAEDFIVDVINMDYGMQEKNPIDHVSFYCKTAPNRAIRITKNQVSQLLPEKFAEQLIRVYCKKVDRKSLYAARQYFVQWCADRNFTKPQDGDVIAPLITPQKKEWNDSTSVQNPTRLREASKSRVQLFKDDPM

In the case of Nc1nc2c(ncn2[C@@H]2O[C@H](COP(=O)(O)OP(=O)(O)OP(=O)(O)O)[C@@H](O)[C@H]2O)c(=O)[nH]1 [GTP], the “X-ray crystallography, 1.81 Å” value (ZK177.8^41–565; allosteric site A1 at tetramer interface) is reported as “Two nucleotides, GTP and dATP, occupy the allosteric site located at the tetramer interface”.
In the case of Nc1ncnc2c1ncn2[C@H]1C[C@H](O)[C@@H](COP(=O)(O)OP(=O)(O)OP(=O)(O)O)O1 [dATP], the “X-ray crystallography, 1.81 Å” value (ZK177.8^41–565; catalytic site, unhydrolysed, no catalytic metal, also bound at allosteric site A2) is reported as “within each monomer, a dATP molecule occupies its catalytic site”.
Nc1nc2c(ncn2[C@H]2C[C@H](O)[C@@H](COP(=O)(O)OP(=O)(O)OP(=O)(O)O)O2)c(=O)[nH]1 [dGTP] was tested, and the “formaldehyde cross-linking, dGTP-induced tetramerization, SDS-PAGE” value (hSAMHD1) was “we detected the tetramer formation of hSAMHD1 protein only in the presence of dGTP”.
